The numbers were not newly measured in paper PMC9227013, “Synthesis, Anticancer Potential and Comprehensive Toxicity Studies of Novel Brominated Derivatives of Bacterial Biopigment Prodigiosin from Serratia marcescens ATCC 27117” (Molecules, 2022), which cites them from elsewhere.

Design in all cases: method as in printed
The subject of one series is breast cancer cell lines. The conditions noted are these: breast cancer cells, 72 h exposure; literature, ref not given; cited from earlier work.
Series [1] has as its system HBL-100 (breast epithelial cells). As to conditions: HBL-100, 72 h exposure; literature, ref not given; cited from earlier work.
A further series deals with WI-38-40 (fibroblasts). As to conditions: WI-38-40, 72 h exposure; literature, ref not given; cited from earlier work.

On to cycloprodigiosin [cPG], for which the IC50 in the series with breast cancer cell lines was 0.15 to 0.20 µg/mL. The “dose for growth inhibition” value is listed as 0.57 µg/mL in series [1] and 0.73 µg/mL in the series with WI-38-40 (fibroblasts).
